Laboratory results reported in EPA's ToxValDB 9.5.
Values belong to the molecule of their own block, whether it stands above or below them.

Columns and labels:
Rattus norvegicus [1] = conditions: repeat dose other; oral
Mus musculus [2] = conditions: chronic; duration: 2 years; oral; diet; M/F; centrilobular hepatocytomegaly (males)
Mus musculus [3] = conditions: short-term, duration: 28 days, oral, gavage, M, C57BL/6
Rattus norvegicus [4] = conditions: oral, gavage; for NEL / LEL: Crl:CD(SD) BR; for LOAEL / NOAEL: Sprague-Dawley
[5] = Liver: Catalase (CAT) Activity, Liver + Multi-organ: Interleukin 1 Beta (IL-1b) mRNA + Spleen: Interleukin 6 (IL-6) mRNA
[6] = Liver: Superoxide Dismutase (SOD) Activity + Multi-organ: Catalase (CAT) Activity, Blood + Multi-organ: Interleukin 1 Beta (IL-1b), Serum + …
[7] = chronic, duration: 92 days, M, Blood: Hematocrit (HCT) + Blood: Hemoglobin (HGB) + Blood: Red Cell Distribution Width (RDW) + Blood: Reticulocytes + Blood: Total Protein (…
[8] = chronic, duration: 92 days, M, Blood: Mean Corpuscular Volume (MCV) + Blood: Red Blood Cell (RBC) + Kidney: Tubular Hypertrophy + Liver: Liver Weight, Relative + Liver: …
[9] = chronic, duration: 92 days, M, Cardiovascular: Aorta: Aorta Histopathology + Cardiovascular: Heart: Heart Histopathology + Cardiovascular: Heart: Heart Weight, Absolute + …
[10] = chronic, duration: 92 days, M, Hematologic: Blood: Activated Partial Thromboplastin Time (APTT) + Hematologic: Blood: Hematocrit (HCT) + Hematologic: Blood: Hemoglobin (…
[11] = chronic, duration: 93 days, F, Blood: Hematocrit (HCT) + Blood: Hemoglobin (HGB) + Blood: Red Blood Cell (RBC) + Blood: Red Cell Distribution Width (RDW) + Blood: …
[12] = chronic, duration: 93 days, F, Liver: Liver Weight, Absolute + Liver: Liver Weight, Relative
[13] = chronic, duration: 93 days, F, Cardiovascular: Aorta: Aorta Histopathology + Cardiovascular: Heart: Heart Histopathology + Cardiovascular: Heart: Heart Weight, Absolute + …
[14] = chronic, duration: 93 days, F, Hematologic: Blood: Activated Partial Thromboplastin Time (APTT) + Hematologic: Blood: Hematocrit (HCT) + Hematologic: Blood: Hemoglobin (…
[15] = developmental, duration: 14 days, M/F, generation: F1, F1: Pelvis: Litters with Pelvis, Incomplete Ossification + F1: Pelvis: Pelvis, Incomplete Ossification + F1: Rib: Litters with Rib, Wavy + …
[16] = developmental, duration: 14 days, M/F, generation: F1, F1: Skull: Litters with Skull, Incomplete Ossification + F1: Skull: Skull, Incomplete Ossification
[17] = developmental, duration: 14 days, M/F, generation: F1, F1: Developmental: Head: Fetal Alterations Count, Head Malformations + F1: Developmental: Head: Litters with Head Malformations + F1: …
[18] = developmental, duration: 14 days, M/F, generation: F1, F1: Developmental: Rib: Rib, Wavy + F1: Developmental: Skull: Litters with Skull, Incomplete Ossification + F1: Developmental: Sternebra: …
[19] = reproduction developmental, duration: 14 days, F, generation: P0, P0: Fur: Stained Fur + P0: Hair/Fur: Alopecia + P0: Intestine: Soft or Liquid Feces + P0: Whole Body: Hunched Posture + P0: Whole Body: …
[20] = reproduction developmental, duration: 14 days, F, generation: P0, P0: Developmental: Uterus: Implantation
[21] = reproduction developmental, duration: 14 days, F, generation: P0, P0: Developmental: Uterus: Implantation + P0: Developmental: Uterus: Resorptions, Mean/Litter + P0: Developmental: Whole Body: No. Male Pups…
[22] = reproduction developmental, duration: 14 days, F, generation: P0, P0: Developmental: Whole Body: No. Male Pups per No. of Pups Sexed + P0: General Toxicity: Whole Body: Hunched Posture + P0: General …

Structure (SMILES): O=[Se](=O)([O-])[O-] [Selenate]
LOAEL (Rattus norvegicus [1]): 0.33 mg/kg-day
NOAEL (Rattus norvegicus [1]): 0.2 mg/kg-day

Structure (SMILES): [O]=[Cr][O][Cr]=[O] [Chromium(III) oxide]
NOAEL (Rattus norvegicus [1]): 2740 mg/kg-day

LEL (Mus musculus [2]): 129 mg/kg-day
Structure (SMILES): COc1nc(C)nc(NC(=O)NS(=O)(=O)c2ccccc2OCCCl)n1 [Triasulfuron]
NOEL (Mus musculus [2]): 1.2 mg/kg-day

Structure (SMILES): Clc1ccc2oc3c(Cl)c(Cl)c(Cl)c(Cl)c3c2c1 [Dibenzofuran, 1,2,3,4,8-pentachloro-]
NOAEL (Rattus norvegicus [1]): 0.048 mg/kg-day

LEL (Mus musculus [3]; [5]): 100 mg/kg-day
NEL (Mus musculus [3]; [5]): 30 mg/kg-day
NEL (Mus musculus [3]; Liver: Glutathione (GSH), Liver + Multi-organ: Chemokine C-X-C motif Ligand 1 (CXCL-1), Serum + Multi-organ: Interleukin 6 (IL-6) mRNA + …): 100 mg/kg-day
LEL (Mus musculus [3]; Liver: Liver Histopathology + Liver: Liver Weight, Absolute + Liver: Liver Weight, Relative + Multi-organ: Chemokine C-X-C motif Ligand 1 (…): 10 mg/kg-day
LEL (Mus musculus [3]; [6]): 30 mg/kg-day
NEL (Mus musculus [3]; [6]): 10 mg/kg-day
NEL (Rattus norvegicus [4]; chronic, duration: 92 days, M, Adrenal: Adrenal Gland Histopathology + Adrenal: Adrenal Gland Weight, Absolute + Adrenal: Adrenal Gland Weight, Relative + Aorta: Aorta …): 125 mg/kg-day
LEL (Rattus norvegicus [4]; [7]): 125 mg/kg-day
NEL (Rattus norvegicus [4]; [7]): 25 mg/kg-day
LEL (Rattus norvegicus [4]; chronic, duration: 92 days, M, Liver: Cholesterol (CHOL), Total, Blood + Thyroid: Colloid Alteration): 1 mg/kg-day
NEL (Rattus norvegicus [4]; chronic, duration: 93 days, F, Adrenal: Adrenal Gland Histopathology + Adrenal: Adrenal Gland Weight, Absolute + Adrenal: Adrenal Gland Weight, Relative + Aorta: Aorta …): 125 mg/kg-day
LEL (Rattus norvegicus [4]; [11]): 125 mg/kg-day
NEL (Rattus norvegicus [4]; [11]): 25 mg/kg-day
LEL (Rattus norvegicus [4]; [12]): 25 mg/kg-day
NEL (Rattus norvegicus [4]; [12]): 5 mg/kg-day
NEL (Rattus norvegicus [4]; developmental, duration: 14 days, M/F, generation: F1, F1: Head: Fetal Alterations Count, Head Malformations + F1: Head: Litters with Head Malformations + F1: Kidney: Litters with Small Renal …): 500 mg/kg-day
LEL (Rattus norvegicus [4]; [15]): 500 mg/kg-day
NEL (Rattus norvegicus [4]; [15]): 200 mg/kg-day
LEL (Rattus norvegicus [4]; [16]): 200 mg/kg-day
NEL (Rattus norvegicus [4]; [16]): 50 mg/kg-day
LEL (Rattus norvegicus [4]; [19]): 500 mg/kg-day
NEL (Rattus norvegicus [4]; [19]): 200 mg/kg-day
NEL (Rattus norvegicus [4]; reproduction developmental, duration: 14 days, F, generation: P0, P0: Ovary: Corpora Lutea + P0: Uterus: Implantation + P0: Uterus: Resorptions, Mean/Litter + P0: Whole Body: Male Pups per Pups Sexed): 500 mg/kg-day
Structure (SMILES): OCCC(F)(F)C(F)(F)C(F)(F)C(F)(F)C(F)(F)C(F)(F)C(F)(F)C(F)(F)F [2-(Perfluorooctyl)ethanol]
LEL (Rattus norvegicus [4]; [8]): 25 mg/kg-day
NEL (Rattus norvegicus [4]; [8]): 5 mg/kg-day
LOAEL (Rattus norvegicus [4]; [9]): 1 mg/kg-day
NOAEL (Rattus norvegicus [4]; [9]): 125 mg/kg-day
LOAEL (Rattus norvegicus [4]; chronic, duration: 92 days, M, Endocrine: Adrenal: Adrenal Gland Histopathology + Endocrine: Adrenal: Adrenal Gland Weight, Absolute + Endocrine: Adrenal: Adrenal Gland …): 1 mg/kg-day
LOAEL (Rattus norvegicus [4]; [10]): 25 mg/kg-day
NOAEL (Rattus norvegicus [4]; [10]): 5 mg/kg-day
LOAEL (Rattus norvegicus [4]; [13]): 1 mg/kg-day
NOAEL (Rattus norvegicus [4]; [13]): 125 mg/kg-day
LOAEL (Rattus norvegicus [4]; chronic, duration: 93 days, F, Endocrine: Adrenal: Adrenal Gland Histopathology + Endocrine: Adrenal: Adrenal Gland Weight, Absolute + Endocrine: Adrenal: Adrenal Gland …): 1 mg/kg-day
LOAEL (Rattus norvegicus [4]; [14]): 25 mg/kg-day
NOAEL (Rattus norvegicus [4]; [14]): 5 mg/kg-day
LOAEL (Rattus norvegicus [4]; [17]): 200 mg/kg-day
NOAEL (Rattus norvegicus [4]; [17]): 20 mg/kg-day
LOAEL (Rattus norvegicus [4]; [18]): 500 mg/kg-day
NOAEL (Rattus norvegicus [4]; [18]): 200 mg/kg-day
LOAEL (Rattus norvegicus [4]; [20]): 500 mg/kg-day
NOAEL (Rattus norvegicus [4]; [20]): 200 mg/kg-day
LOAEL (Rattus norvegicus [4]; [21]): 200 mg/kg-day
NOAEL (Rattus norvegicus [4]; [21]): 20 mg/kg-day
NOAEL (Rattus norvegicus [4]; reproduction developmental, duration: 14 days, F, generation: P0, P0: Developmental: Uterus: Resorptions, Mean/Litter): 500 mg/kg-day
LOAEL (Rattus norvegicus [4]; [22]): 200 mg/kg-day
NOAEL (Rattus norvegicus [4]; [22]): 20 mg/kg-day
